Data on seven compounds can be found in paper PMC6199744, “Development of Chemical Proteomics for the Folateome and Analysis of the Kinetoplastid Folateome” (ACS Infectious Diseases, 2018).

Like-named read-outs stand apart in the source and are kept apart here.

Assay type in all cases: binding
Experiment [1] concerns the target T1, HeLa cell extract proteins (Homo sapiens, UniProt Q01650).
T1 construct: endogenous in cells; host or cells: HeLa cell extract

In experiment [2] the target is T2, HeLa cell extract proteins (Homo sapiens, UniProt Q9Y5Y0).
T2 construct: endogenous in cells; host or cells: HeLa cell extract
T2 sequence (Q9Y5Y0 1-555): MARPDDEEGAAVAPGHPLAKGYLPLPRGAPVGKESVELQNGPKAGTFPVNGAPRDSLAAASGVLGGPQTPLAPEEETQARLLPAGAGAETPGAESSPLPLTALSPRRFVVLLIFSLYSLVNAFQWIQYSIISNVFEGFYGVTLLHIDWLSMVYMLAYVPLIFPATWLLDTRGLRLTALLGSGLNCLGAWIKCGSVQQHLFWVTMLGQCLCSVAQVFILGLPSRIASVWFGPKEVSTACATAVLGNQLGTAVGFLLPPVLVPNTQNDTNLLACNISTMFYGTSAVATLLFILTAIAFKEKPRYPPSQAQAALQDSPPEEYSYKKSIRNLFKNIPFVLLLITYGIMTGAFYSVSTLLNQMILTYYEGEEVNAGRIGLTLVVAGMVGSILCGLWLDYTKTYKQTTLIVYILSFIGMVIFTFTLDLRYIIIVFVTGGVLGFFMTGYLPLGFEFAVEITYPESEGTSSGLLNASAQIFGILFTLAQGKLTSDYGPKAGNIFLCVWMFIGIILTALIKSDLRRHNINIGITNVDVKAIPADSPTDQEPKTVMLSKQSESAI

Experiment [3] concerns the target T3, HeLa cell extract proteins (Homo sapiens, UniProt Q8TCG1).
T3 construct: endogenous in cells; host or cells: HeLa cell extract

Experiment [4] has as its target T4, HeLa cell extract proteins (Homo sapiens, UniProt Q96JN8).
T4 construct: endogenous in cells; host or cells: HeLa cell extract

Experiment [5] concerns the target T5, HeLa cell extract proteins (Homo sapiens, UniProt P15104).
T5 construct: endogenous in cells; host or cells: HeLa cell extract

For experiment [6], the target named is T6, HeLa cell extract proteins (Homo sapiens, UniProt Q15046).
T6 construct: endogenous in cells; host or cells: HeLa cell extract

Experiment [7] has as its target T7, HeLa cell extract proteins (Homo sapiens, UniProt P40926).
T7 construct: endogenous in cells; host or cells: HeLa cell extract
T7 sequence (P40926 25-338): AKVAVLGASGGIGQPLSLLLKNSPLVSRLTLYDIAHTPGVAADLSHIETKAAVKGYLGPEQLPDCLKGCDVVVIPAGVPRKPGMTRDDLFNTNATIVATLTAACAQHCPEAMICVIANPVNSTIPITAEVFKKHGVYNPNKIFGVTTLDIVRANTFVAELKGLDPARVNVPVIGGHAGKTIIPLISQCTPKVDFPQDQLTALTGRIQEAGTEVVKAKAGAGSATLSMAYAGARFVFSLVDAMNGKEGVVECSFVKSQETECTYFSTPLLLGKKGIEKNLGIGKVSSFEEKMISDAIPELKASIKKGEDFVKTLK

In experiment [8] the target is T8, HeLa cell extract proteins (Homo sapiens, UniProt P25788).
T8 construct: endogenous in cells; host or cells: HeLa cell extract
T8 sequence (P25788 1-255): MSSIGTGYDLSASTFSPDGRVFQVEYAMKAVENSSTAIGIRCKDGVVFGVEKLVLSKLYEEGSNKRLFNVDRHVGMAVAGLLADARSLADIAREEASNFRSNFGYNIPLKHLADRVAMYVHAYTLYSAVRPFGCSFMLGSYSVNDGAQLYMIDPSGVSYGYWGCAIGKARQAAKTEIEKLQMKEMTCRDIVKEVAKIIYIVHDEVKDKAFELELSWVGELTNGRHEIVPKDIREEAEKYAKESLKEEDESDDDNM

The target in experiment [9] is T9, HeLa cell extract proteins (Homo sapiens, UniProt Q969U7).
T9 construct: endogenous in cells; host or cells: HeLa cell extract
T9 sequence (Q969U7 1-264): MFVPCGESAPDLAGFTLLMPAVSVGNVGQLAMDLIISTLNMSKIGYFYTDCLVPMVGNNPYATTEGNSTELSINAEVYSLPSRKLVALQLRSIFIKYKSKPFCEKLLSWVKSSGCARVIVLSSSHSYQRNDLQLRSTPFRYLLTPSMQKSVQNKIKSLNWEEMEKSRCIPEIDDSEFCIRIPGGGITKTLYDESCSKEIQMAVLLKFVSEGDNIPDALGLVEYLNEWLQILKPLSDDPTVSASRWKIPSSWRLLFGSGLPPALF

In experiment [10] the target is T10, HeLa cell extract proteins (Homo sapiens, UniProt Q14566).
T10 construct: endogenous in cells; host or cells: HeLa cell extract
T10 sequence (Q14566 1-821): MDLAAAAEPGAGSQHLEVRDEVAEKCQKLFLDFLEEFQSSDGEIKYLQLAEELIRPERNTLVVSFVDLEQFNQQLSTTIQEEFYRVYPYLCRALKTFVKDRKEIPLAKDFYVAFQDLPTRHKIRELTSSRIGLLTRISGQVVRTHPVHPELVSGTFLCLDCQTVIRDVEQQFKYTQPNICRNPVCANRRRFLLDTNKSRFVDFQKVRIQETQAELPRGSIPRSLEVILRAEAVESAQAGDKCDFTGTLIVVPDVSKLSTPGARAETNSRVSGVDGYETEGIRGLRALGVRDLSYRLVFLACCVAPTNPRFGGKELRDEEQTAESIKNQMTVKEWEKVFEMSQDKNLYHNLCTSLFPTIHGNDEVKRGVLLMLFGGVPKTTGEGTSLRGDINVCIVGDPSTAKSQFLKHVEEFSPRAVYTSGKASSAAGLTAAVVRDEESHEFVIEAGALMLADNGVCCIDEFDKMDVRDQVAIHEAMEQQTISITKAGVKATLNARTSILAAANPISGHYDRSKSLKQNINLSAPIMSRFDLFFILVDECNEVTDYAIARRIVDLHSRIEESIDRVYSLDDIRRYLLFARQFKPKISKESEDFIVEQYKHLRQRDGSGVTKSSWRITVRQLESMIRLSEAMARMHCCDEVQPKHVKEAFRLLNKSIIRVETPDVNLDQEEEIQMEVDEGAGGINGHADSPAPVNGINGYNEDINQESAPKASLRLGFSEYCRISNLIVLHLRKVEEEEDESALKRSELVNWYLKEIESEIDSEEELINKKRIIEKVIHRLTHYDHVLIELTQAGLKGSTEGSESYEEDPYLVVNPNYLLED

For experiment [11], the target named is T11, HeLa cell extract proteins (Homo sapiens, UniProt Q9UH17).
T11 construct: endogenous in cells; host or cells: HeLa cell extract

[12] abbreviates: captured protein KIAA1524, HeLa.

T6 sequence (Q15046 whole entry): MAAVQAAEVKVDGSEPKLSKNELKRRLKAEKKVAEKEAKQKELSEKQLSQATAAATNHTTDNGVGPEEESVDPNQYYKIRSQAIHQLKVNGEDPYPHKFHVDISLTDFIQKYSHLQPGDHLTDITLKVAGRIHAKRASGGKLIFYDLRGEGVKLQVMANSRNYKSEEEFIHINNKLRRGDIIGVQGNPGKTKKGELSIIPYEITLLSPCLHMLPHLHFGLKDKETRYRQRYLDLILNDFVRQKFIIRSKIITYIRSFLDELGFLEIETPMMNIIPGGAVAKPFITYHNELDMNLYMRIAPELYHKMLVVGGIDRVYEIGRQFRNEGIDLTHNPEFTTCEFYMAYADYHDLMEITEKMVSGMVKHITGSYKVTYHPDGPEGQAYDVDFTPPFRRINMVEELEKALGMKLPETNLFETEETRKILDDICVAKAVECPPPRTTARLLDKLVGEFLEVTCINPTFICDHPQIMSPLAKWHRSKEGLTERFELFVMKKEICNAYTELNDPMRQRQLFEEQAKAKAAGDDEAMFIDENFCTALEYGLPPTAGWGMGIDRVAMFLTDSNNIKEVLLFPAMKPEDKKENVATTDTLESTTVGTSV
T1 sequence (Q01650 whole entry): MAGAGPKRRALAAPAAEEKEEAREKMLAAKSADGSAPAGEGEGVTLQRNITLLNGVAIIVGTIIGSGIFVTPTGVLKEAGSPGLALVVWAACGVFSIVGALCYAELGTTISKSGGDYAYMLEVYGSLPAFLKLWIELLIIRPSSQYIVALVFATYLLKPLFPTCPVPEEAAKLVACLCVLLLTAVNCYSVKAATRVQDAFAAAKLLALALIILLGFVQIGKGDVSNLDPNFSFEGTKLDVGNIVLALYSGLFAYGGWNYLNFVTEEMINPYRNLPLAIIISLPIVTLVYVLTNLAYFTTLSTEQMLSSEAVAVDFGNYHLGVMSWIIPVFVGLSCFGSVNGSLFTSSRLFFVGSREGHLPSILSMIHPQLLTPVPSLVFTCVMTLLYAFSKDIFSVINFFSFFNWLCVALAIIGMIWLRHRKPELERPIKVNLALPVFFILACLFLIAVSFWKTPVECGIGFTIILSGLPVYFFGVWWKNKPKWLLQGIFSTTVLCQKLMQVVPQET
T4 sequence (Q96JN8 whole entry): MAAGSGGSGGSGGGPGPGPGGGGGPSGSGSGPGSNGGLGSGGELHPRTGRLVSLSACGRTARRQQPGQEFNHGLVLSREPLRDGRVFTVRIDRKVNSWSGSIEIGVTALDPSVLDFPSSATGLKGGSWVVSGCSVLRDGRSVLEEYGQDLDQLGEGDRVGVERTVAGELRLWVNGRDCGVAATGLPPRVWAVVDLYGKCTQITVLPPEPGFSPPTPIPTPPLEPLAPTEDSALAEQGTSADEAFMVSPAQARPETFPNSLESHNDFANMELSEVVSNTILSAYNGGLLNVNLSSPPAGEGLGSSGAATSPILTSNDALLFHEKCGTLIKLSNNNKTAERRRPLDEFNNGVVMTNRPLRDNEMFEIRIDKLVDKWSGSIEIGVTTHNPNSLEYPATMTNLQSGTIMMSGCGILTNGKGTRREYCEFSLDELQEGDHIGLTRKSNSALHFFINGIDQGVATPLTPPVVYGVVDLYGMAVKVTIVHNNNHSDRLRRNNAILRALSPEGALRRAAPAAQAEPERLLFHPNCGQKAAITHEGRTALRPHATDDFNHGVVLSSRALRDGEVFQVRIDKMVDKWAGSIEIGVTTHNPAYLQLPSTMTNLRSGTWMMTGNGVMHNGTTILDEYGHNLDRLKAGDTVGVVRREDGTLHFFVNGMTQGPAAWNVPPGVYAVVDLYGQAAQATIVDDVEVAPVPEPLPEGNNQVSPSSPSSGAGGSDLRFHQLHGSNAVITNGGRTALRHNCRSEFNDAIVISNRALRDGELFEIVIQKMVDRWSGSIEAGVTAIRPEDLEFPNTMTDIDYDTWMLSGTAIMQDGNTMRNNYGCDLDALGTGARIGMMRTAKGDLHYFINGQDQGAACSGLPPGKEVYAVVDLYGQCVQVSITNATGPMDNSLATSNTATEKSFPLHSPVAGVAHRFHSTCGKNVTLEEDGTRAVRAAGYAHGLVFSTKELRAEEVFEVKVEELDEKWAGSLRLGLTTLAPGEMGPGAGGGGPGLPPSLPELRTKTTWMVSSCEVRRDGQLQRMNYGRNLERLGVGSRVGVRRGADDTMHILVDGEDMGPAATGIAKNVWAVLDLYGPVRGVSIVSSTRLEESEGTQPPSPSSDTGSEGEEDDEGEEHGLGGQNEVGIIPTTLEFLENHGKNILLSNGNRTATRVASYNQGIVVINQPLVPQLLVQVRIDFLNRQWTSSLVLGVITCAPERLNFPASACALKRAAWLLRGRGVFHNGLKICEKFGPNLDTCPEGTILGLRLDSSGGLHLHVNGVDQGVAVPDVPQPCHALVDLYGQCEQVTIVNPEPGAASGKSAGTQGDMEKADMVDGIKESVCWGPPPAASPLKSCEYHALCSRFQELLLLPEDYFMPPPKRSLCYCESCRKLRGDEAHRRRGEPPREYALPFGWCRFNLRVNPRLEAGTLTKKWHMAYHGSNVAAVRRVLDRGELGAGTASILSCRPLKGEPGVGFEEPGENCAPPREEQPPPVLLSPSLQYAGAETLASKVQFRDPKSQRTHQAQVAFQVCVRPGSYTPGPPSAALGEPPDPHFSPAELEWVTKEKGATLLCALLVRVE
T11 sequence (Q9UH17 whole entry): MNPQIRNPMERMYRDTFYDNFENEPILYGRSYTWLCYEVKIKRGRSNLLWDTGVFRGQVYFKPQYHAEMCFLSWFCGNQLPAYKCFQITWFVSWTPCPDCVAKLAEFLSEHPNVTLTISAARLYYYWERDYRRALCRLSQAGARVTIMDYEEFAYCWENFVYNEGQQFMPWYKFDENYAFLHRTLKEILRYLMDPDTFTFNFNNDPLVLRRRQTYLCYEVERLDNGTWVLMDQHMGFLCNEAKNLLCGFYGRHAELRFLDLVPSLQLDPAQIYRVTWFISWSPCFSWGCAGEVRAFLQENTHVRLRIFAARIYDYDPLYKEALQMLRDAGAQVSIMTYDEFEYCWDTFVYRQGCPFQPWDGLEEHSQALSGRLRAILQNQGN
T5 sequence (P15104 whole entry): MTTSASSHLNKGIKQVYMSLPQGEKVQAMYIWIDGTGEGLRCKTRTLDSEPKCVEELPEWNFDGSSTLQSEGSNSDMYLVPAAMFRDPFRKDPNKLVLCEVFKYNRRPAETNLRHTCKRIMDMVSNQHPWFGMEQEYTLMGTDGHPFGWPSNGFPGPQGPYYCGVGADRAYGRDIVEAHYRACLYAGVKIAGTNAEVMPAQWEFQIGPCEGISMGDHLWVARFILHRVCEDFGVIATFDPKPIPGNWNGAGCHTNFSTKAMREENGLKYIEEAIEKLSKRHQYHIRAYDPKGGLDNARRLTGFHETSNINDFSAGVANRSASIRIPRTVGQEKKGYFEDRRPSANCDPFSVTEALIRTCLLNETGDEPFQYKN

In the case of `Nc1nc2c(c(=O)[nH]1)N(C=O)C(CNc1ccc(C(=O)N[C@@H](CCC(=O)O)C(=O)O)cc1)CN2` (some centres unmarked) [LEU, leucovorin], the “fold changes relative to vehicle control” value turned out to be 1.02 in experiment [1] (HeLa, captured protein SLC7A5); 0.57 in experiment [2] (protein FLVCR1, HeLa); 0.87 in [3] (HeLa, protein KIAA1524); 1.16 in experiment [4] (HeLa, protein KIAA1787); 0.62 in experiment [5] (HeLa, protein GLUL); 0.91 in [6] (HeLa, captured protein KARS). The “fold changes relative to vehicle control” value was found to be 1.06 in experiment [7] (HeLa, protein MDH2); 1.02 in experiment [8] (HeLa, captured protein PSMA3); 1.05 in experiment [9] (HeLa, captured protein PSMG2); 1.28 in [10] (HeLa, protein MCM6); 0.93 in experiment [11] (HeLa, protein APOBEC3B).

Turning to `Nc1nc2[nH]cc(CCc3ccc(C(=O)N[C@@H](CCC(=O)O)C(=O)O)cc3)c2c(=O)[nH]1` [PTX, pemetrexed], the “fold changes relative to vehicle control” value in [1] was 0.8; in experiment [2], 0.59; in experiment [3] it was 0.87; in [4] it was 1.07; in experiment [5] it was 0.84; in [6], 0.96. The “fold changes relative to vehicle control” value amounted to 1.11 in experiment [7]; 0.99 in experiment [8]; 0.97 in experiment [9]; 1.05 in experiment [10]; 0.89 in experiment [11].

For `CCCCCCOc1ccc(Cc2cnc(N)nc2N)cc1` [compound 1], the “fold changes relative to vehicle control” value in [1] (HeLa, protein SLC7A5) is given as 0.97; in experiment [2] (HeLa, protein FLVCR1), 0.78; in [3] (setting [12]) it was 0.97; in [4] (protein KIAA1787, HeLa), 1.03; in [5] (captured protein GLUL, HeLa), 0.97; in experiment [6] (protein KARS, HeLa), 0.74. Also, the “fold changes relative to vehicle control” value is 1.26 in experiment [7] (protein MDH2, HeLa); 1.04 in experiment [8] (protein PSMA3, HeLa); 1 in [9] (protein PSMG2, HeLa); 1.15 in experiment [10] (protein MCM6, HeLa); 0.92 in experiment [11] (HeLa, protein APOBEC3B).

On to `CCCCCCOc1cccc(Cc2cnc(N)nc2N)c1` [compound 2], for which the “fold changes relative to vehicle control” value in experiment [1] (HeLa, protein SLC7A5) came to 1.01; in experiment [2] (HeLa, protein FLVCR1), 0.95; in experiment [3] (setting [12]), 1.09; in [4] (protein KIAA1787, HeLa), 0.98; in [5] (captured protein GLUL, HeLa), 1.02; in experiment [6] (protein KARS, HeLa) it was 1.12. The “fold changes relative to vehicle control” value in experiment [7] (protein MDH2, HeLa) came to 1.97; in [8] (protein PSMA3, HeLa), 1.27; in [9] (protein PSMG2, HeLa), 1.03; in experiment [10] (protein MCM6, HeLa) it was 2.32; in experiment [11] (HeLa, protein APOBEC3B) it was 1.25.

Turning to `Nc1nc2cccc(-c3ccccc3)c2n1Cc1ccc(Cl)c(Cl)c1` [compound 3], the “fold changes relative to vehicle control” value in experiment [1] (HeLa, protein SLC7A5) was determined as 1.06; in experiment [2] (HeLa, protein FLVCR1), 0.75; in [3] (setting [12]), 0.98; in experiment [4] (protein KIAA1787, HeLa), 1.09; in [5] (captured protein GLUL, HeLa), 0.88; in [6] (protein KARS, HeLa), 1.13. Besides, the “fold changes relative to vehicle control” value in experiment [7] (protein MDH2, HeLa) was 0.92; in [8] (protein PSMA3, HeLa), 0.86; in [9] (protein PSMG2, HeLa), 0.87; in [10] (protein MCM6, HeLa), 0.91; in [11] (HeLa, protein APOBEC3B) it was 1.01.

Consider `NCCOCCOCC(=O)Nc1nc2ncc(CNc3ccc(C(=O)NC(CCC(=O)O)C(=O)O)cc3)nc2c(=O)[nH]1` (centres unmarked) [compound 6], for which the “fold changes relative to vehicle control” value is 0.76 in experiment [1] (HeLa, captured protein SLC7A5); 0.62 in experiment [2] (protein FLVCR1, HeLa); 0.94 in experiment [3] (HeLa, protein KIAA1524); 1.11 in experiment [4] (HeLa, protein KIAA1787); 0.81 in [5] (HeLa, protein GLUL); 1.04 in experiment [6] (HeLa, captured protein KARS). Moreover, the “fold changes relative to vehicle control” value in experiment [7] (HeLa, protein MDH2) amounted to 1.34; in experiment [8] (HeLa, captured protein PSMA3), 1.01; in experiment [9] (HeLa, captured protein PSMG2), 1; in [10] (HeLa, protein MCM6), 1.3; in [11] (HeLa, protein APOBEC3B), 1.02.

Take `NCCCNc1ccc(C(=O)NC(CCC(=O)O)C(=O)O)cc1` (centres unmarked) [compound 7]: the “fold changes relative to vehicle control” value was 0.97 in experiment [1] (HeLa, captured protein SLC7A5); 0.57 in experiment [2] (protein FLVCR1, HeLa); 0.89 in experiment [3] (HeLa, protein KIAA1524); 1.21 in experiment [4] (HeLa, protein KIAA1787); 1.07 in experiment [5] (HeLa, protein GLUL); 1.07 in experiment [6] (HeLa, captured protein KARS). The “fold changes relative to vehicle control” value in experiment [7] (HeLa, protein MDH2) is reported as 0.96; in [8] (HeLa, captured protein PSMA3), 0.98; in experiment [9] (HeLa, captured protein PSMG2), 0.98; in experiment [10] (HeLa, protein MCM6) it was 1.06; in experiment [11] (HeLa, protein APOBEC3B) it was 0.94.
